The values below come from patent US20130096104A1, “IMIDAZOPYRIDINE COMPOUNDS, COMPOSITIONS AND METHODS OF USE” (GENENTECH, INC., priority 2010, published 2013).

Usually Ki stands for a dissociation constant, usually derived from enzyme kinetics or from competition with a known ligand.

The target in this test is T1, TYK2 kinase domain (Homo sapiens, UniProt P29597).
T1 construct: The activity of the isolated JAK1, JAK2 or TYK2 kinase domain was measured
T1 sequence (P29597 897-1176 limits assumed): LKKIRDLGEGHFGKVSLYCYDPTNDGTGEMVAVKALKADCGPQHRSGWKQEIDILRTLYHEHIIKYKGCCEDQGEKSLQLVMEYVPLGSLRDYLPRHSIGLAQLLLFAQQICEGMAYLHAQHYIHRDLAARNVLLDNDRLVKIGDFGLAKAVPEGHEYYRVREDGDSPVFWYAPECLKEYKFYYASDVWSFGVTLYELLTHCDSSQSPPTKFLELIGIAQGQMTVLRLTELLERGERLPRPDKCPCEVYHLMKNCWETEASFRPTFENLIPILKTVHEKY
Description: TYK2 inhibition assay (Example A, Caliper LabChip peptide phosphorylation). In kind it is biochemical. Conditions: isolated kinase domain, 1 nM TYK2, 25 uM ATP, Morrison tight binding model. As to the method: The activity of the isolated JAK1, JAK2 or TYK2 kinase domain was measured by monitoring phosphorylation of a peptide derived from JAK3 ([…] fluorescently labeled on the N-terminus with 5-carboxyfluorescein using the Caliper LabChip technology (Caliper Life Sciences, Hopkinton, Mass.). […] Reactions were incubated at 22° C. in 384-well polypropylene microtiter plates for 30 minutes and then stopped by addition of 25 uL of an EDTA containing solution (100 mM Hepes pH 7.2, 0.015% Brij-35, 150 mM EDTA), resulting in a final EDTA concentration of 50 mM. After termination of the kinase reaction, the proportion of phosphorylated product was determined as a fraction of total peptide substrate using the Caliper LabChip 3000 according to the manufacturer's specifications. Ki values were then determined using the Morrison tight binding model. Morrison, J. F., Biochim. Biophys. Acta. 185:269-296 (1969); William, J. W. and Morrison, J. F., Meth. Enzymol., 63:437-467 (1979).
Consider `O=C(Nc1ncnc2c1nc(-c1c(Cl)cccc1Cl)n2CCO)C1CC1` [Example 439, Cyclopropanecarboxylic acid [8-(2,6-dichloro-phenyl)-9-(2-hydroxy-ethyl)-9H-purin-6-yl]-amide], for which the Ki was 835 nM.
With `Cn1c(-c2c(Cl)cccc2Cl)nc2c(Nc3ccncc3)ncnc21` [Example 215, 8-(2,6-dichlorophenyl)-9-methyl-N-(pyridin-4-yl)-9H-purin-6-amine] the figure was 56.5 nM; with `Clc1cccc(Cl)c1-c1nc2c(Nc3ccncn3)ncnc2[nH]1` [Example 14, 8-(2,6-dichlorophenyl)-N-(pyrimidin-4-yl)-9H-purin-6-amine], 2.8 nM; with `N#Cc1cc(Cl)c(-c2nc3ccnc(NC(=O)C4CC4)c3[nH]2)c(Cl)c1` [Example 10, N-(2-(2,6-dichloro-4-cyanophenyl)-3H-imidazo[4,5-c]pyridin-4-yl)cyclopropanecarboxamide], 2.5 nM.
As for `N#Cc1cc(Cl)c(-c2nc3ncnc(Nc4ccc(N5CCOCC5)cn4)c3[nH]2)c(Cl)c1` [Example 197, 3,5-dichloro-4-(6-(5-morpholinopyridin-2-ylamino)-7H-purin-8-yl)benzonitrile], the figure is 1.4 nM; as for `Cn1c(-c2c(Cl)cccc2Cl)nc2ccnc(NC(=O)C3CC3)c21` [Example 13, N-(2-(2,6-dichlorophenyl)-3-methyl-3H-imidazo[4,5-c]pyridine-4-yl)cyclopropanecarboxamide], 19.5 nM.
With `Clc1cccc(Cl)c1-c1nc2c(Nc3ccccn3)nccc2[nH]1` [Example 1, 2-(2,6-dichlorophenyl)-N-(pyridin-2-yl)-1H-imidazo[4,5-e]pyridin-4-amine] the figure was 1.7 nM; with `CNC(=O)Nc1ncnc2nc(-c3c(Cl)cccc3Cl)[nH]c12` [Example 171, 1-(8-(2,6-dichlorophenyl)-7H-purin-6-yl)-3-methylurea], 27.2 nM.
Turning to `Clc1cccc(Cl)c1-c1nc2ccnc(Nc3cn[nH]c3)c2[nH]1` [Example 3, 2-(2,6-dichlorophenyl)-N-(1H-pyrazol-4-yl)-3H-imidazo[4,5-e]-pyridin-4-amine], the Ki is 14.5 nM.
Consider `Cc1ccc(Nc2ncnc3nc(-c4c(Cl)cccc4Cl)[nH]c23)nc1` [Example 179, 8-(2,6-dichlorophenyl)-N-(5-methylpyridin-2-yl)-7H-purin-6-amine], for which affinity was put at a Ki of 1.5 nM.
As for `O=C(Nc1ncnc2nc(-c3c(F)cccc3Cl)[nH]c12)C1CC1` [Example 210, N-(8-(2-chloro-6-fluorophenyl)-7H-purin-6-yl)cyclopropanecarboxamide], the figure is 27.8 nM.
As for `Fc1cccc(Cl)c1-c1nc2ccnc(Nc3cnccn3)c2[nH]1` [Example 6, 2-(2-chloro-6-fluorophenyl)-N-(pyrazin-2-yl)-3H-imidazo[4,5-e]-pyridin-4-amine], the figure is 3.1 nM.
The compound `O=C(Nc1nccc2nc(-c3c(Cl)cccc3Cl)[nH]c12)c1cncs1` [Example 7, N-(2-(2,6-dichlorophenyl)-3H-imidazo[4,5-c]pyridin-4-yl) thiazole-5-carboxamide] showed a Ki of 7.8 nM.
Take `O=C(Nc1ncc(Cl)c2[nH]c(-c3c(Cl)cccc3Cl)nc12)C1CC1` [Example 447, Cyclopropanecarboxylic acid [7-chloro-2-(2,6-dichloro-phenyl)-1H-imidazo[4,5-c]pyridin-4-yl]-amide]: the Ki is 0.8 nM.
With `COC(=O)Nc1ncnc2nc(-c3c(F)cccc3Cl)[nH]c12` [Example 208, methyl 8-(2-chloro-6-fluorophenyl)-7H-purin-6-ylcarbamate] the figure was 56 nM; with `Cc1nc(Nc2ncnc3nc(-c4c(Cl)cccc4Cl)[nH]c23)cc(N2CCN(CCO)CC2)n1` [Example 167, 2-(4-{6-[8-(2,6-Dichloro-phenyl)-7H-purin-6-ylamino]-2-methyl-pyrimidin-4-yl}-piperazin-1-yl)-ethanol], 7.2 nM.
With `Cn1c(-c2c(Cl)cccc2Cl)nc2c(NC(=O)C3CC3)nccc21` [Example 12, N-(2-(2,6-dichlorophenyl)-1-methyl-1H-imidazo[4,5-c]pyridine-4-yl)cyclopropanecarboxamide] the figure was 13.3 nM; with `CNC(=O)Nc1nccc2nc(-c3c(Cl)cccc3Cl)[nH]c12` [Example 11, 1-(2-(2,6-dichlorophenyl)-3H-imidazo[4,5-e]pyridin-4-yl)-3-methylurea], 4.9 nM; with `O=C(Nc1ncnc2nc(-c3c(Cl)cccc3Cl)[nH]c12)C1CC1` [Example 15, N-(8-(2,6-dichlorophenyl)-7H-purin-6-yl)cyclopropanecarboxamide], 8.1 nM.
As for `Clc1cccc(Cl)c1-c1nc2ccnc(Nc3cc(N4CCOCC4)ncn3)c2[nH]1` [Example 5, 2-(2,6-dichlorophenyl)-N-(6-morpholinopyrimidin-4-yl)-3H-imidazo[4,5-e]pyridin-4-amine], the figure is 0.6 nM; as for `Cc1cc(Nc2ncc(F)c3[nH]c(-c4c(Cl)cccc4Cl)nc23)nc(C)n1` [Example 16, 2-(2,6-dichlorophenyl)-N-(2,6-dimethylpyrimidin-4-yl)-7-fluoro-1H-imidazo[4,5-c]pyridin-4-amine], 2.3 nM.
